Test results: patent US8143282B2, “Heterocyclic compounds” (S*BIO Pte Ltd., priority 2005, dated 2012)

What was measured:
[1] = Measurement of microsomal stability; type: in vitro ADME; settings: pooled human liver microsomes, pH 7.4; human liver microsome, 5 μM test compound, 1.0 mg/ml microsomal protein
Description: Metabolic stability measurements in the in vitro using liver microsomes aids in the prediction of the in vivo hepatic clearance and the compound stability towards phase I biotransformation reactions mediated by P450 isozymes.
Pooled human liver microsome (HLM was purchased from BD Gentest (BD BioSciences). The incubations consisted of test compound (5 μM) or control compound (Verapamil), NADPH-generating system solution A (25 mM NADP^+, 66 mM glucose-6-phosphate, 66 mM MgCl2 in H2O), NADPH-generating system solution B (40 U/ml glucose-6-phosphate dehydrogenase in 5 mM sodium citrate) and 1.0 mg/ml microsomal protein, respectively, in 100 mM potassium phosphate buffer (pH 7.4). Samples were incubated for 0, 5, 15, 30, 45, 60 min. Reaction was terminated with ice-cold 80% acetonitrile and 20% DMSO. Samples were subsequently centrifuged at 4° C. for 15 min at 2,000 rpm. 100 μL of the supernatant was transferred to the LC-MS Plate for analysis. Before quantitative analysis, the compound was tuned in LC/MS machine to get the optimized MS condition. Liquid chromatography was performed on a Luna C18 column (Phenomenex U.S.A, Torrance, Calif.) (2×50 mm, 5 μM). % of the compound remaining (by area) at each time point is calculated with respect to time 0 min. Plot % remaining against time (min) to obtain the curve and use the Prism software to obtain the t1/2.

PC3 = assay: Cell-based proliferation assay for GI50 (CyQUANT), PC3; settings: Homo sapiens, PC-3; PC3, 96 h treatment; read-out: Cellular or Growth Inhibition Activity, GI50, PC3
Description: (§1) Human colon cancer cell lines (Colo205, HCT116), Ovarian cancer cell line (A2780), Hepatoma cell line (HEP3B), Prostate cancer cell line (PC3) were obtained from ATCC or ECACC. Colo205 cells were cultivated in RPMI 1640 containing 2 mM L-Glutamine, 5% FBS, 1.0 mM Na Pyruvate, 1 U/ml of penicillin and 1 μg of streptomycin. HCT116 cells were cultivated in McCoy's containing RPMI 1640 containing 2 mM L-Glutamine, 5% FBS, 1 U/ml of penicillin and 1 μg of streptomycin. A2780 cells were cultivated in RPMI 1640 containing 2 mM L-Glutamine, 5% FBS, 1 U/ml of penicillin and 1 μg of streptomycin. HEP3B cells were cultivated in EMEM containing 2 mM L-glutamine, 5% FBS, 1% non essential amino acid, 1 mM Na Pyruvate, 1 U/ml of penicillin and 1 μg of streptomycin. PC3 cells were cultivated in F12K, 2 mM L-glutamine, 5% FBS, 1 U/ml of penicillin and 1 μg of streptomycin. PC3, Colo205, and HCT116 cells were seeded in 96-wells plate at 1000, 5000 and 6000 cells per well respectively. A2780 and HEP3B cells were seeded in 96-wells plate at 4000 cells per well respectively. The plates were incubated at 37° C., 5% CO2, for 24 h. Cells were treated with compounds at various concentrations for 96 h. Cell growth was then monitored using CyQUANT® cell proliferation assay (Invitrogen Pte Ltd). Dose response curves were plotted to determine GI50 values for the compounds using XL-fit (ID Business Solution, Emeryville, Calif.). GI50 is defined as the concentration of compound required for 50% inhibition of cell growth.

HCT116 = assay: Cell-based proliferation assay for GI50 (CyQUANT), HCT116; settings: Homo sapiens, HCT-116; HCT116, 96 h treatment; read-out: Cellular or Growth Inhibition Activity, GI50, HCT116
Description: as §1

HDAC1 enzyme = molecular target: T1, HDAC1 enzyme (Homo sapiens, UniProt Q13547); assay: In vitro HDAC assay for determination of IC50 values (BIOMOL fluorescent-based HDAC activity assay); type: biochemical
T1 construct: Amplification of human HDAC1 coding region from this cDNA library was cloned separately into the baculovirus expression pDEST20 vector; made in house; host or cells: SF9 insect cells, pDEST20-HDAC1 baculovirus
Summary of the method: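 Recombinant GST-HDAC1, cloned from SW620 cDNA and expressed in Sf9 cells, tested in a fluorogenic Fluor de Lys deacetylase assay. Developer was added for 10 min and fluorescence read at 360/460 nm. IC50 came from concentration series.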

Colo205 cells = assay: Cell-based proliferation assay for GI50 (CyQUANT), Colo205; settings: Homo sapiens, COLO 205, 96 h treatment, read-out: Cellular or Growth Inhibition Activity in Colo205 cells, GI50
Summary of the method: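 Cells were seeded at 1000 (PC3), 5000 (Colo205), 6000 (HCT116) or 4000 (HEP3B) per well and left 24 h at 37° C. Compound treatment lasted 96 h. Growth was read by CyQUANT, and GI50 (50% growth inhibition) came from dose-response curves.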

A2780 = assay: Cell-based proliferation assay for GI50 (CyQUANT), A2780; settings: Homo sapiens; A2780, 96 h treatment; read-out: Cellular or Growth Inhibition Activity, GI50, A2780
Description: as §1

HEP3B = assay: Cell-based proliferation assay for GI50 (CyQUANT), HEP3B; settings: Homo sapiens, 96 h treatment, read-out: Cellular or Growth Inhibition Activity, GI50, HEP3B
Description: as §1

acetylated histone H3 = assay: Histone H3 acetylation assay (immuno-blotting) in Colo205 cells; type: cell-based, Human; settings: 10 μM, 24 h, western-blot
Description: A hallmark of histone deacetylase (HDAC) inhibition is the increase in the acetylation level of histones. Histone acetylation, including H3, H4 and H2A can be detected by immuno-blotting (western-blot). Colo205 cells, approximately 5×10^5 cells, were seeded in the previously described medium, cultivated for 24 h and subsequently treated with HDAC inhibitory agents and a positive control at a final concentration of 10 μM. After 24 h, cells were harvested and lysed according to the instruction from Sigma Mammalian Cell Lysis Kit. The protein concentration was quantified using BCA method (Sigma Pte Ltd). The protein lysate was separated using 4-12% bis-tris SDS-PAGE gel (Invitrogen Pte Ltd) and was transferred onto PVDF membrane (BioRad Pte Ltd). The membrane was probed using primary antibody specific for acetylated histone H3 (Upstate Pte Ltd). The detection antibody, goat anti rabbit antibody conjugated with HRP was used according to the manufacturing instruction (Pierce Pte Ltd). After removing the detection antibody from the membrane, an enhanced chemiluminescent substrate for detection of HRP (Pierce Pte Ltd) was added onto the membrane. After removing the substrate, the membrane was exposed to an X-ray film (Kodak) for 1 sec-20 mins. The X-ray film was developed using the X-ray film processor. The density of each band observed on the developed film could be qualitatively analyzed using UVP Bioimaging software (UVP, Inc, Upland, Calif.). The values were then normalized against the density of actin in the corresponding samples to obtain the expression of the protein.

T1 sequence (Q13547 whole entry): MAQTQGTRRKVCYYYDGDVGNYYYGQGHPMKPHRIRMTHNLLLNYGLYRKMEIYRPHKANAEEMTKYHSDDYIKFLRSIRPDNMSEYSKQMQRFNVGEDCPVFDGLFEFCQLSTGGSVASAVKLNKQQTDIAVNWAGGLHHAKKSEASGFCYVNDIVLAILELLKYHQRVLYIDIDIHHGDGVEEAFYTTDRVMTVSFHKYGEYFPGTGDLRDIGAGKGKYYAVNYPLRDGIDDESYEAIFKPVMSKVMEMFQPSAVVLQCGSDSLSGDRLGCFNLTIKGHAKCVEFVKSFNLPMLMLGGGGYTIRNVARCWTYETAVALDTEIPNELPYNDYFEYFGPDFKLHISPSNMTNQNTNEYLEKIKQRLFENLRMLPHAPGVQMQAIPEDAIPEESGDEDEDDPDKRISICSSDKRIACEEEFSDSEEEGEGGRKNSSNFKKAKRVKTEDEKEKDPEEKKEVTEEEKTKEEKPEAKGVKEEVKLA

## CCNCCn1c(CC(C)CC(C)(C)C)nc2cc(/C=C/C(=O)NO)ccc21 (stereo not shown) [Compound 40, 3-[1-(2-Ethylamino-ethyl)-2-(2,4,4-trimethyl-pentyl)-1H-benzoimidazol-5-yl]-N-hydroxy-acrylamide]
[1]
  half-life at 5 μM: > 30 min
PC3
  GI50: < 500 nM
HCT116
  GI50: < 500 nM
HDAC1 enzyme
  IC50: 27 nM
Colo205 cells
  GI50: 160 nM
A2780
  GI50: < 500 nM

## CCN(CCn1cnc2cc(/C=C/C(=O)NO)ccc21)CCC(C)(C)C [Compound 111, 3-(1-{2-[(3,3-Dimethyl-butyl)-ethyl-amino]-ethyl}-1H-benzoimidazol-5-yl)-N-hydroxy-acrylamide]
HDAC1 enzyme
  IC50: 29 nM
Colo205 cells
  GI50: 210 nM
HEP3B
  GI50: < 500 nM

## CCNCCn1c(CCC(C)(C)C)nc2cc(/C=C/C(=O)NO)ccc21 [Compound 63, 3-[1-(2-ethylamino-ethyl)-2-(3,3-dimethyl-butyl)-1H-benzoimidazol-5-yl]-N-hydroxy-acrylamide]
[1]
  half-life at 5 μM: > 30 min
HDAC1 enzyme
  IC50: 51 nM
Acetylated histone H3
  Histone Acetylation activities (Histone-3): Active
Colo205 cells
  GI50: 540 nM

## CCCCCc1nc2cc(/C=C/C(=O)NO)ccc2n1CCNC(C)C [Compound 71, N-Hydroxy-3-[1-(2-isopropylamino-ethyl)-2-pentyl-1H-benzoimidazol-5-yl]-acrylamide]
[1]
  half-life at 5 μM: > 30 min
PC3
  GI50: < 500 nM
HCT116
  GI50: < 500 nM
HDAC1 enzyme
  IC50: 40 nM
Acetylated histone H3
  Histone Acetylation activities (Histone-3): Active
Colo205 cells
  GI50: 240 nM
A2780
  GI50: < 500 nM

## CCCCc1nc2cc(/C=C/C(=O)NO)ccc2n1CCNC(C)C [Compound 46, 3-[2-Butyl-1-(2-isopropylamino-ethyl)-1H-benzoimidazol-5-yl]-N-hydroxy-acrylamide]
[1]
  half-life at 5 μM: > 30 min
PC3
  GI50: < 500 nM
HCT116
  GI50: < 500 nM
HDAC1 enzyme
  IC50: 49 nM
Colo205 cells
  GI50: 480 nM
HEP3B
  GI50: 500 to 1000 nM
A2780
  GI50: < 500 nM

## CCCCCc1nc2cc(/C=C/C(=O)NO)ccc2n1CCN(C)C [Compound 65, 3-[1-(2-Dimethylamino-ethyl)-2-pentyl-1H-benzoimidazol-5-yl]-N-hydroxy-acrylamide]
HDAC1 enzyme
  IC50: 78 nM
Acetylated histone H3
  Histone Acetylation activities (Histone-3): Active
Colo205 cells
  GI50: 560 nM

## CCN(CC)CCn1c(CC(C)C)nc2cc(/C=C/C(=O)NO)ccc21 [Compound 7, 3-[1-(2-Diethylamino-ethyl)-2-isobutyl-1H-benzoimidazol-5-yl]-N-hydroxy-acrylamide]
PC3
  GI50: 500 to 1000 nM
HCT116
  GI50: 1000 to 5000 nM
Colo205 cells
  GI50: 810 nM
A2780
  GI50: 1000 to 5000 nM

## CCCCCCc1nc2cc(/C=C/C(=O)NO)ccc2n1CCN(C)C [Compound 58, 3-[1-(2-Dimethylamino-ethyl)-2-hexyl-1H-benzoimidazol-5-yl]-N-hydroxy-acrylamide]
[1]
  half-life at 5 μM: > 30 min
PC3
  GI50: < 500 nM
HCT116
  GI50: < 500 nM
HDAC1 enzyme
  IC50: 30 nM
Colo205 cells
  GI50: 380 nM
HEP3B
  GI50: < 500 nM
A2780
  GI50: < 500 nM

## CCCCCCc1nc2cc(/C=C/C(=O)NO)ccc2n1CCNCC [Compound 52, 3-[1-(2-Ethylamino-ethyl)-2-hexyl-1H-benzoimidazol-5-yl]-N-hydroxy-acrylamide]
[1]
  half-life at 5 μM: > 30 min
PC3
  GI50: < 500 nM
HCT116
  GI50: < 500 nM
HDAC1 enzyme
  IC50: 25 nM
Colo205 cells
  GI50: 210 nM
A2780
  GI50: < 500 nM

## CCCCCCc1nc2cc(/C=C/C(=O)NO)ccc2n1CCNC(C)C [Compound 50, 3-[2-Hexyl-1-(2-isopropylamino-ethyl)-1H-benzoimidazol-5-yl]-N-hydroxy-acrylamide]
PC3
  GI50: < 500 nM
HCT116
  GI50: < 500 nM
Colo205 cells
  GI50: 170 nM
A2780
  GI50: < 500 nM

## CC/C=C\CCc1nc2cc(/C=C/C(=O)NO)ccc2n1CCNCC [Compound 30, 3-[1-(2-Ethylamino-ethyl)-2-hex-3-enyl-1H-benzoimidazol-5-yl]-N-hydroxy-acrylamide]
PC3
  GI50: < 500 nM
HCT116
  GI50: 500 to 1000 nM
Colo205 cells
  GI50: 310 nM
A2780
  GI50: < 500 nM

## CCCCCCc1nc2cc(/C=C/C(=O)NO)ccc2n1CCNC [Compound 74, 3-[2-Hexyl-1-(2-methylamino-ethyl)-1H-benzoimidazol-5-yl]-N-hydroxy-acrylamide]
[1]
  half-life at 5 μM: > 30 min
HDAC1 enzyme
  IC50: 28 nM
Acetylated histone H3
  Histone Acetylation activities (Histone-3): Active
Colo205 cells
  GI50: 550 nM

## CC(Cc1nc2cc(/C=C/C(=O)NO)ccc2n1CC(C)(C)CN(C)C)CC(C)(C)C (stereo not shown) [Compound 23, 3-[1-(3-Dimethylamino-2,2-dimethyl-propyl)-2-(2,4,4-trimethyl-pentyl)-1H-benzoimidazol-5-yl]-N-hydroxy-acrylamide]
PC3
  GI50: < 500 nM
HCT116
  GI50: 500 to 1000 nM
HDAC1 enzyme
  IC50: 45 nM
Colo205 cells
  GI50: 190 nM
A2780
  GI50: < 500 nM

## CCCCCc1nc2cc(/C=C/C(=O)NO)ccc2n1CCNCC [Compound 68, 3-[1-(2-Ethylamino-ethyl)-2-pentyl-1H-benzoimidazol-5-yl]-N-hydroxy-acrylamide]
[1]
  half-life at 5 μM: > 30 min
HDAC1 enzyme
  IC50: 34 nM
Acetylated histone H3
  Histone Acetylation activities (Histone-3): Active
Colo205 cells
  GI50: 520 nM

## CCCCc1nc2cc(/C=C/C(=O)NO)ccc2n1CCNCC [Compound 44, 3-[2-Butyl-1-(2-ethylamino-ethyl)-1H-benzoimidazol-5-yl]-N-hydroxy-acrylamide]
[1]
  half-life at 5 μM: > 30 min
PC3
  GI50: < 500 nM
HCT116
  GI50: 1000 to 5000 nM
HDAC1 enzyme
  IC50: 54 nM
Colo205 cells
  GI50: 870 nM
A2780
  GI50: 500 to 1000 nM

## CC/C=C\CCc1nc2cc(/C=C/C(=O)NO)ccc2n1CC(C)(C)CN(C)C [Compound 22, 3-[1-(3-Dimethylamino-2,2-dimethyl-propyl)-2-hex-3-enyl-1H-benzoimidazol-5-yl]-N-hydroxy-acrylamide]
PC3
  GI50: < 500 nM
HCT116
  GI50: 1000 to 5000 nM
HDAC1 enzyme
  IC50: 64 nM
Colo205 cells
  GI50: 750 nM
A2780
  GI50: < 500 nM
